Data on six molecules can be found in patent US9567325B2, “Carboxamide compounds and their use as calpain inhibitors” (AbbVie Deutschland GmbH & Co. KG, priority 2009, dated 2017).

Type in all cases: biochemical
Experiment [1] concerns the target T1, calpain-1 isolated from human erythrocytes (Homo sapiens, UniProt P07384).
T1 construct: 20 nM calpain-1-isolated from human erythrocytes (Calbiochem #208713); purchased Calbiochem 208713; host or cells: human erythrocytes (natural source)
T1 sequence (P07384 1-714): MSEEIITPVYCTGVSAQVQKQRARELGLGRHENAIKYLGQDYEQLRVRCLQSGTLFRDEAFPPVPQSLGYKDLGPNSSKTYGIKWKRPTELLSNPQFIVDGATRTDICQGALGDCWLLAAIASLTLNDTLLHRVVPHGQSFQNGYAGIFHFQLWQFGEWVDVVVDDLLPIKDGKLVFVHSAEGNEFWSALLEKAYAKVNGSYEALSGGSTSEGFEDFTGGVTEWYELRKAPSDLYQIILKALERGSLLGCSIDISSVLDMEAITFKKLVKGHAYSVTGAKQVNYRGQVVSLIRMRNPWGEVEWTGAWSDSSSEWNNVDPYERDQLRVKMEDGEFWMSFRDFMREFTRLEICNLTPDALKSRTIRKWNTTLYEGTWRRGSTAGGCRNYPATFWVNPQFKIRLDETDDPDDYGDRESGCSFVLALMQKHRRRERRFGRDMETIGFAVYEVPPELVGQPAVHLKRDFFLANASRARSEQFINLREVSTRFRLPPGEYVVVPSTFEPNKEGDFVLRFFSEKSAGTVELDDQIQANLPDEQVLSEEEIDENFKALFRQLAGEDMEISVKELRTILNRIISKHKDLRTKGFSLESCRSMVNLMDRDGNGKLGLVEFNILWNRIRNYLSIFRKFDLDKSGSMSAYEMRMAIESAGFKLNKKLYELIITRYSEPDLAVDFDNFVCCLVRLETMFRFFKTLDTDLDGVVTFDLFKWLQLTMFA
T1 sequence (P04632 1-268 partner): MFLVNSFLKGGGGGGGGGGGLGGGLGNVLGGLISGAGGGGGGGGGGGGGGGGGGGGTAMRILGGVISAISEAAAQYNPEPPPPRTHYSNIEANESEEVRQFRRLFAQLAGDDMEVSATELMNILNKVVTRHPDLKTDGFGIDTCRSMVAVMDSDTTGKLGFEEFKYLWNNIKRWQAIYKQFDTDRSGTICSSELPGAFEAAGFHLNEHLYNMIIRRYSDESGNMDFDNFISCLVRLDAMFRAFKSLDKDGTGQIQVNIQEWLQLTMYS
The experiment is described as follows: Calpain I enzyme inhibition in vitro, kinetic fluorescence assay. As to conditions: apparent Ki calculated from IC50 by Cheng-Prussoff; 100 μM Suc-Leu-Tyr-AMC, pH 7.3, room temperature. How it is done:
(§1) The following solutions and buffers were employed: • HBS (for 40 ml): 800 μl 1M HEPES; 2.16 ml 100 mM KCl; 4.8 ml 1M NaCl; 3.59 ml 5% glucose; 60 μl 1M MgSO4; 400 μl 100 mM Na pyruvate, 28.19 ml water; pH 7.2-7.5. • lysis buffer (for 20 ml): 400 μl 1M Tris pH 8.2; 2.74 ml 1M NaCl; 520 μl 0.5M EDTA; 2 ml 10% triton X-100; 0.8 ml (=1:25) CompletePlus (1 tablet/2 ml H2O); 200 μl 100 mM Pefabloc; 13.34 ml water, pH 8.2. • TBST (10×) (for 11): 100 mM Tris (12.1 g); 1.5M NaCl (87 g); 1% Tween 20 (10 g), adjusted to pH 8. I Enzyme Inhibition In Vitro: • Testing for blockade of the corresponding enzymic activities was carried out by means of kinetic fluorescence assays (excitation 390 nm, emission 460 nm). • Apparent Ki values were calculated from the experimentally determined IC50 values by the Cheng-Prussoff relation assuming a reversible competitive enzyme inhibition. The Km values of the substrates used under the assay conditions indicated above were: 90 μM (Z-Phe-Arg-AMC, cathepsin B), 10 μM (Z-Gly-Pro-Arg-AMC, cathepsin K), 2 μM (Z-Phe-Arg-AMC, cathepsin L), and 30 μM (Z-Val-Val-Arg-AMC, cathepsin S). • The indicated Ki values are averages of the inhibition constants calculated on the basis of 2 to 4 independent dose-effect plots. • The following assays were used: • 1. Calpain I: • 20 nM calpain-1-isolated from human erythrocytes (Calbiochem #208713), 100 μM Suc-Leu-Tyr-AMC (Bachem #1-1355) as substrate in buffer with 62 mM imidazole, 0.3 mM CaCl2, 0.10% CHAPS, 0.05% BSA, 1 mM DTT at pH 7.3 and room temperature. • 2. Cathepsin B: • 0.25 nM cathepsin B—isolated from human liver (Calbiochem #219362), 100 μM Z-Phe-Arg-AMC (Bachem #1-1160) as substrate 50 mM MES, 2 mM EDTA, 0.05% Brij 35, 2.5 mM L-cysteine, pH 6.0, room temperature. • 3. Cathepsin K: • 3 nM cathepsin K-activated from recombinant human procathepsin K from E. coli (Calbiochem #342001), 10 μM Z-Gly-Pro-Arg-AMC (Biomol #P-142) as substrate in 50 mM MES, 2 mM EDTA, 0.05% Brij 35, 2.5 mM L-cysteine, pH 6.0, room temperature. • 4. Cathepsin L: • 1 nM cathepsin L—isolated from human liver (Calbiochem #219402), 2 μM Z-Phe-Arg-AMC (Bachem #1-1160) as substrate in 50 mM MES, 2 mM EDTA, 0.05% Brij 35, 2.5 mM L-cysteine, pH 6.0, room temperature. • 5. Cathepsin S: • 0.5 nM recombinant human cathepsin S from E. coli (Calbiochem #219343), 20 μM Z-Val-Val-Arg-AMC (Bachem #I-1540) as substrate in 50 mM MES, 2 mM EDTA, 0.05% Brij 35, 2.5 mM L-cysteine, pH 6.0, room temperature. • The results of the in vitro determination are indicated in Table 1. The following abbreviations are used in Table 1: • In the “Calpain activity” column, +++ stands for a calpain Ki (Ki(calpain)) of ≦40 nM, and ++ means: 40 nM<Ki(Calpain)≦100 nM and + means 100 nM<Ki(Calpain)≦300 nM. • The “Sel. cat. B” column indicates the Ki(cathepsin B)/Ki(calpain) ratio. In this connection, ++ means a Ki(cathepsin B)/Ki(calpain) ratio of ≧30 and + means 10≦Ki(cathepsin B)/Ki(calpain)<30. • The “Sel. cat. K” column indicates the Ki(cathepsin K)/Ki(calpain) ratio. In this connection, ++ means a Ki(cathepsin K)/Ki(calpain) ratio of ≧30 and + means 10≦Ki(cathepsin K)/Ki(calpain)<30. • The “Sel. cat. L” column indicates the Ki(cathepsin L)/Ki(calpain) ratio. In this connection, ++ means a Ki(cathepsin L)/Ki(calpain) ratio of ≧50 and + means 30≦Ki(cathepsin L)/Ki(calpain)<50. • The “Sel. cat. S” column indicates the Ki(cathepsin S)/Ki(calpain) ratio. In this connection, ++ means a Ki(cathepsin S)/Ki(calpain) ratio of ≧100 and + means 50≦Ki(cathepsin S)/Ki(calpain)<100.

The target in experiment [2] is T2, cathepsin K activated from recombinant human procathepsin K (Homo sapiens, UniProt P43235).
T2 construct: purchased Calbiochem 342001; host or cells: E. coli
T2 sequence (P43235 115-329): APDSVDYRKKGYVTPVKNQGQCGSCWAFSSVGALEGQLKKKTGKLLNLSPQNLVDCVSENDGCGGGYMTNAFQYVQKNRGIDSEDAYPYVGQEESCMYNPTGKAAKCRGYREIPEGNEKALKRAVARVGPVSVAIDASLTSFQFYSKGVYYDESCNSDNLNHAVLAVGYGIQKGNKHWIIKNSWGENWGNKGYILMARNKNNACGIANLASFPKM
The experiment is described as follows: Cathepsin K enzyme inhibition in vitro, kinetic fluorescence assay (selectivity vs calpain). The conditions noted are these: ratio of Ki values; Z-Gly-Pro-Arg-AMC substrate, pH 6.0. How it is done: as §1

Experiment [3] concerns the target T3, cathepsin B isolated from human liver (Homo sapiens, UniProt P07858).
T3 construct: 0.25 nM cathepsin B—isolated from human liver (Calbiochem #219362); purchased Calbiochem 219362; host or cells: human liver (natural source)
Kind of experiment: Cathepsin B enzyme inhibition in vitro, kinetic fluorescence assay (selectivity vs calpain). As to conditions: ratio of Ki values; Z-Phe-Arg-AMC substrate, pH 6.0. How it is done:
as §1

The target in experiment [4] is T4, cathepsin L isolated from human liver (Homo sapiens, UniProt P07711).
T4 construct: 1 nM cathepsin L—isolated from human liver (Calbiochem #219402); purchased Calbiochem 219402; host or cells: human liver (natural source)
T4 sequence (P07711 114-333): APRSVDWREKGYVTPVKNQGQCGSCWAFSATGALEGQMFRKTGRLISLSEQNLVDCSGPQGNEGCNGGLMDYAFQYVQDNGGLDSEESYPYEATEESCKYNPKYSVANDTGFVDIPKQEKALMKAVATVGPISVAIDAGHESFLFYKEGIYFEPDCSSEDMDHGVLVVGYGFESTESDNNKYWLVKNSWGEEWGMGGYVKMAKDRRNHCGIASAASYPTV
Kind of experiment: Cathepsin L enzyme inhibition in vitro, kinetic fluorescence assay (selectivity vs calpain). As to conditions: ratio of Ki values; Z-Phe-Arg-AMC substrate, pH 6.0. On the procedure:
as §1

Experiment [5] deals with T5, recombinant human cathepsin S (Homo sapiens, UniProt P25774).
T5 construct: purchased Calbiochem 219343; host or cells: E. coli
T5 sequence (P25774 115-331): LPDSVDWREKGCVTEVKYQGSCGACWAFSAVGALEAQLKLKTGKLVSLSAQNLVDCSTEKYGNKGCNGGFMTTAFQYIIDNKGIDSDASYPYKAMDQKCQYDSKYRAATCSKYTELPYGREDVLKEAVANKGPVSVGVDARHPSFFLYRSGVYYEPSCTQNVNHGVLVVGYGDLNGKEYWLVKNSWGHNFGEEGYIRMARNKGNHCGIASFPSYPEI
The experiment is described as follows: Cathepsin S enzyme inhibition in vitro, kinetic fluorescence assay (selectivity vs calpain). The conditions noted are these: ratio of Ki values; Z-Val-Val-Arg-AMC substrate, pH 6.0. On the procedure: as §1

Where only a bound is given, the exact number is not on record here.

Turning to `NC(=O)C(=O)C(Cc1ccccc1)NC(=O)c1cccnc1-c1ncc(-c2ccccc2)[nH]1` (stereo not shown) [Example 2, N-(4-Amino-3,4-dioxo-1-phenylbutan-2-yl)-2-(5-phenyl-1H-imidazol-2-yl)pyridine-3-carboxamide], the Ki in experiment [1] was 100 to 300 nM. In experiment [2], the “Sel cat. K (Ki(cathepsin K)/Ki(calpain) ratio)” value is listed as “+ (+ means 10≦Ki(cathepsin K)/Ki(calpain)<30)”.
On to `NC(=O)C(=O)C(Cc1ccccc1)NC(=O)c1cccnc1-c1nc2ccccc2s1` (stereo not shown) [Example 3, N-(4-Amino-3,4-dioxo-1-phenylbutan-2-yl)-2-(1,3-benzothiazol-2-yl)pyridine-3-carboxamide], for which the Ki in experiment [1] is 40 to 100 nM. For the same molecule, in experiment [3], the “Sel cat. B (Ki(cathepsin B)/Ki(calpain) ratio)” value is reported as “+ (+ means 10≦Ki(cathepsin B)/Ki(calpain)<30)”. Besides, in experiment [2], the “Sel cat. K (Ki(cathepsin K)/Ki(calpain) ratio)” value is “+ (+ means 10≦Ki(cathepsin K)/Ki(calpain)<30)”. Further, the “Sel cat. L (Ki(cathepsin L)/Ki(calpain) ratio)” value in experiment [4] is on record as “++ (++ means a Ki(cathepsin L)/Ki(calpain) ratio of ≧50)”. Also, the “Sel cat. S (Ki(cathepsin S)/Ki(calpain) ratio)” value in experiment [5] was “++ (++ means a Ki(cathepsin S)/Ki(calpain) ratio of ≧100)”.
Consider `NC(=O)C(=O)C(Cc1ccccc1)NC(=O)c1cccnc1-c1nc(-c2ccc(F)cc2)cs1` (stereo not shown) [Example 4, N-(4-Amino-3,4-dioxo-1-phenylbutan-2-yl)-2-[4-(4-fluorophenyl)-1,3-thiazol-2-yl]pyridine-3-carboxamide], for which, in experiment [1], the Ki is 40 to 100 nM. The “Sel cat. B (Ki(cathepsin B)/Ki(calpain) ratio)” value in experiment [3] is “+ (+ means 10≦Ki(cathepsin B)/Ki(calpain)<30)”. In addition, the “Sel cat. K (Ki(cathepsin K)/Ki(calpain) ratio)” value in experiment [2] was “+ (+ means 10≦Ki(cathepsin K)/Ki(calpain)<30)”. Also, in experiment [4], the “Sel cat. L (Ki(cathepsin L)/Ki(calpain) ratio)” value was “++ (++ means a Ki(cathepsin L)/Ki(calpain) ratio of ≧50)”. The “Sel cat. S (Ki(cathepsin S)/Ki(calpain) ratio)” value in experiment [5] is listed as “++ (++ means a Ki(cathepsin S)/Ki(calpain) ratio of ≧100)”.
As to `NC(=O)C(=O)C(Cc1ccccc1)NC(=O)c1cccnc1-c1csc(-c2ccc(F)cc2)n1` (stereo not shown) [Example 5, N-(4-Amino-3,4-dioxo-1-phenylbutan-2-yl)-2-[2-(4-fluorophenyl)-1,3-thiazol-4-yl]pyridine-3-carboxamide], the Ki in experiment [1] is 40 to 100 nM. In addition, the “Sel cat. B (Ki(cathepsin B)/Ki(calpain) ratio)” value in experiment [3] is on record as “+ (+ means 10≦Ki(cathepsin B)/Ki(calpain)<30)”. Also, the “Sel cat. L (Ki(cathepsin L)/Ki(calpain) ratio)” value in experiment [4] is “+ (+ means 30≦Ki(cathepsin L)/Ki(calpain)<50)”. Further, the “Sel cat. S (Ki(cathepsin S)/Ki(calpain) ratio)” value in experiment [5] is on record as “++ (++ means a Ki(cathepsin S)/Ki(calpain) ratio of ≧100)”.
Consider `NC(=O)C(=O)C(Cc1ccccc1)NC(=O)c1cccnc1-c1csc(-c2cccc(C(F)(F)F)c2)n1` (stereo not shown) [Example 6, N-(4-Amino-3,4-dioxo-1-phenylbutan-2-yl)-2-{2-[3-(trifluoromethyl)phenyl]-1,3-thiazol-4-yl}pyridine-3-carboxamide], for which, in experiment [1], the Ki is no more than 40 nM. The “Sel cat. B (Ki(cathepsin B)/Ki(calpain) ratio)” value in experiment [3] is reported as “++ (++ means a Ki(cathepsin B)/Ki(calpain) ratio of ≧30)”. Also, in experiment [2], the “Sel cat. K (Ki(cathepsin K)/Ki(calpain) ratio)” value was “+ (+ means 10≦Ki(cathepsin K)/Ki(calpain)<30)”. Also, the “Sel cat. L (Ki(cathepsin L)/Ki(calpain) ratio)” value in experiment [4] was “++ (++ means a Ki(cathepsin L)/Ki(calpain) ratio of ≧50)”. The “Sel cat. S (Ki(cathepsin S)/Ki(calpain) ratio)” value in experiment [5] is “++ (++ means a Ki(cathepsin S)/Ki(calpain) ratio of ≧100)”.
Take `NC(=O)C(=O)C(Cc1ccccc1)NC(=O)c1cccnc1-c1nc2ccccc2o1` (stereo not shown) [Example 16, N-(4-amino-3,4-dioxo-1-phenylbutan-2-yl)-2-(benzo[d]oxazol-2-yl)nicotinamide]: the Ki in experiment [1] is 100 to 300 nM. Moreover, the “Sel cat. B (Ki(cathepsin B)/Ki(calpain) ratio)” value in experiment [3] was “+ (+ means 10≦Ki(cathepsin B)/Ki(calpain)<30)”. In addition, the “Sel cat. K (Ki(cathepsin K)/Ki(calpain) ratio)” value in experiment [2] is reported as “+ (+ means 10≦Ki(cathepsin K)/Ki(calpain)<30)”. The “Sel cat. S (Ki(cathepsin S)/Ki(calpain) ratio)” value in experiment [5] is reported as “++ (++ means a Ki(cathepsin S)/Ki(calpain) ratio of ≧100)”.
